Measurements as given in patent publication US20200163984A1, “USE OF ISOVALERYL SPIRAMYCIN I, II AND/OR III IN MANUFACTURING MEDICAMENT FOR TREATING AND/OR PREVENTING TUMOR, AND MEDICAMENT” (SHENYANG FUYANG PHARMACEUTICAL TECHNOLOGY CO., LTD., priority 2017, published 2020).
Where two headings read alike, the source gives them in different places.

Tests used:
[1] = system: transplanted tumor of human non-small cell lung cancer cell H1299
Method: (§1) Then cell concentration was adjusted to 1×10^7/ml with matrigel, then each nude mouse was inoculated subcutaneously with 0.2 ml of cells at its right armpit and recorded as the first day of inoculation. When the tumor grows to be greater than or equal to 100 mm^3, the mice were randomly divided into 11 groups with 6 mice in each group: isovaleryl spiramycin I groups with doses of 25, 50 and 100 mg/kg, isovaleryl spiramycin II groups with doses of 25, 50 and 100 mg/kg, and isovaleryl spiramycin III groups with doses of 25, 50 and 100 mg/kg. Each group was continuously administered intragastrically for 30 days with a dose of 20 ml/kg. The mice were sacrificed the next day after drug withdrawal and the indicators were tested. The long diameter and short diameter of the tumor, and the body weight of each mouse were recorded every 3 days from drug administration to nude mouse sacrifice.
(§2) The body weight of the nude mice and the long diameter (a) and short diameter (b) of the transplanted tumor were measured every 3 days, and the tumor volume (v), relative tumor volume (RTV) and relative tumor proliferation rate (T/C) are calculated respectively according to the following formulas, wherein V=a×b^2/2; RTV=V/V0 (V0 is the tumor volume before administration, V is the tumor volume before sacrifice), and T/C (%)=treatment group RTV/model control group RTV×100%.
(§3) Each mouse was weighed and sacrificed. After the tumor was completely stripped off from the body of the mouse, the non-tumor tissues such as blood stains and fat were removed to weigh the tumor and calculate the tumor growth inhibition rate. The average tumor weight of each group of mice is used as an indicator of efficacy. Tumor growth inhibition rate (%)=(1−the average tumor weight of the treatment group/the average tumor weight of the model group)×100%.

[2] = system: transplanted tumor of human esophageal cancer cell TE-1; assay: TE-1 transplanted tumor in nude mice
Method: as §1, with “group: a model group, a cyclophosphamide group,” for “group:”
as §2, §3

[3] = system: transplanted tumor of human large cell lung cancer H460 cells; assay: H460 transplanted tumor in nude mice
Method: as §1, §2, §3

[4] = system: transplanted tumor of human pancreatic cancer cell PANC-1; assay: PANC-1 transplanted tumor in nude mice; conditions: for Tumor Volume (mm3) (d 1): d1
Method: as §1, with “group: a model group, a cyclophosphamide group,” for “group:”
as §2, §3

[5] = H1299, 25 mg/kg (low dose) i.g. 30 days
[6] = H1299, 50 mg/kg (medium dose) i.g. 30 days
[7] = H1299, 100 mg/kg (high dose) i.g. 30 days
[8] = TE-1, 12.5 mg/kg (low dose) i.g. 30 days
[9] = TE-1, 25 mg/kg (medium dose) i.g. 30 days
[10] = TE-1, 50 mg/kg (high dose) i.g. 30 days
[11] = H460, 25 mg/kg (low dose) i.g. 30 days
[12] = H460, 50 mg/kg (medium dose) i.g. 30 days
[13] = H460, 100 mg/kg (high dose) i.g. 30 days
[14] = PANC-1, 12.5 mg/kg (low dose) i.g. 30 days
[15] = PANC-1, 25 mg/kg (medium dose) i.g. 30 days
[16] = PANC-1, 50 mg/kg (high dose) i.g. 30 days

CO[C@@H]1[C@@H](O[C@@H]2O[C@H](C)[C@@H](O[C@H]3C[C@@](C)(O)[C@@H](OC(=O)CC(C)C)[C@H](C)O3)[C@H](N(C)C)[C@H]2O)[C@@H](CC=O)C[C@@H](C)[C@@H](O[C@H]2CC[C@H](N(C)C)[C@@H](C)O2)/C=C/C=C/C[C@@H](C)OC(=O)C[C@H]1O [Isovaleryl spiramycin I, isovaleryl spiramycin I]
Inhibition Rate (tumor growth inhibition rate) [1, 5]: 22.11%
Relative Tumor Proliferation Rate (T/C) [1, 5]: 89.42%
Relative Tumor Volume (RTV) [1, 5]: 11.46 ± 3.83
Tumor Volume (d 1) [1, 5]: 136.07 ± 17.13 mm3
Tumor Volume (d 30) [1, 5]: 1513.14 ± 387.19 mm3
Tumor Weight [1, 5]: 1.36 ± 0.33 g
Inhibition Rate (tumor growth inhibition rate) [1, 6]: 43.83%
Relative Tumor Proliferation Rate (T/C) [1, 6]: 49.81%
Relative Tumor Volume (RTV) [1, 6]: 6.39 ± 1.01
Tumor Volume (d 1) [1, 6]: 135.51 ± 20.47 mm3
Tumor Volume (d 30) [1, 6]: 861.71 ± 164.32 mm3
Tumor Weight [1, 6]: 0.98 ± 0.27 g
Inhibition Rate (tumor growth inhibition rate) [1, 7]: 69.95%
Relative Tumor Proliferation Rate (T/C) [1, 7]: 27.43%
Relative Tumor Volume (RTV) [1, 7]: 3.52 ± 0.68
Tumor Volume (d 1) [1, 7]: 137.34 ± 22.95 mm3
Tumor Volume (d 30) [1, 7]: 470.36 ± 21.77 mm3
Tumor Weight [1, 7]: 0.52 ± 0.21 g
tumor volume and relative tumor volume compared with the model group ([1]; H1299, low, medium and high doses, P<0.05): significantly lower
mouse weight compared with the model group ([1]; mouse, in vivo): no significant changes
Inhibition Rate (tumor growth inhibition rate) [2, 8]: 30.92%
Relative Tumor Proliferation Rate (T/C) [2, 8]: 60.55%
Relative Tumor Volume (RTV) [2, 8]: 5.48 ± 3.80
Tumor Volume (d 1) [2, 8]: 408.51 ± 150.80 mm3
Tumor Volume (d 30) [2, 8]: 2690.27 ± 374.79 mm3
Tumor Weight [2, 8]: 1.08 ± 0.24 g
Inhibition Rate (tumor growth inhibition rate) [2, 9]: 51.01%
Relative Tumor Proliferation Rate (T/C) [2, 9]: 40.70%
Relative Tumor Volume (RTV) [2, 9]: 3.94 ± 2.71
Tumor Volume (d 1) [2, 9]: 258.44 ± 104.69 mm3
Tumor Volume (d 30) [2, 9]: 1143.85 ± 402.36 mm3
Tumor Weight [2, 9]: 0.77 ± 0.43 g
Inhibition Rate (tumor growth inhibition rate) [2, 10]: 69.71%
Relative Tumor Proliferation Rate (T/C) [2, 10]: 20.61%
Relative Tumor Volume (RTV) [2, 10]: 3.65 ± 1.71
Tumor Volume (d 1) [2, 10]: 279.56 ± 156.70 mm3
Tumor Volume (d 30) [2, 10]: 626.64 ± 431.35 mm3
Tumor Weight [2, 10]: 0.48 ± 0.36 g
tumor volume and relative tumor volume compared with the model group ([2]; TE-1, low, medium and high doses, P<0.05): significantly lower
mouse weight compared with the model group ([2]; mouse, in vivo): no significant changes
Inhibition Rate (tumor growth inhibition rate) [3, 11]: 20.70%
Relative Tumor Proliferation Rate (T/C) [3, 11]: 56.56%
Relative Tumor Volume (RTV) [3, 11]: 5.94 ± 2.02
Tumor Volume (d 1) [3, 11]: 148.20 ± 15.93 mm3
Tumor Volume (d 30) [3, 11]: 889.44 ± 343.94 mm3
Tumor Weight [3, 11]: 1.37 ± 0.13 g
Inhibition Rate (tumor growth inhibition rate) [3, 12]: 46.33%
Relative Tumor Proliferation Rate (T/C) [3, 12]: 49.00%
Relative Tumor Volume (RTV) [3, 12]: 5.15 ± 2.25
Tumor Volume (d 1) [3, 12]: 148.51 ± 17.68 mm3
Tumor Volume (d 30) [3, 12]: 753.94 ± 306.82 mm3
Tumor Weight [3, 12]: 0.93 ± 0.18 g
Inhibition Rate (tumor growth inhibition rate) [3, 13]: 70.11%
Relative Tumor Proliferation Rate (T/C) [3, 13]: 31.96%
Relative Tumor Volume (RTV) [3, 13]: 3.36 ± 0.85
Tumor Volume (d 1) [3, 13]: 145.08 ± 19.59 mm3
Tumor Volume (d 30) [3, 13]: 477.54 ± 89.21 mm3
Tumor Weight [3, 13]: 0.52 ± 0.07 g
tumor volume and relative tumor volume compared with the model group ([3]; H460, low, medium and high doses, P<0.05): significantly lower
mouse weight compared with the model group ([3]; mouse, in vivo): no significant changes
Inhibition Rate (tumor growth inhibition rate) [4, 14]: 31.10%
Tumor Weight [4, 14]: 1.87 ± 0.25 g
Inhibition Rate (tumor growth inhibition rate) [4, 15]: 51.72%
Tumor Weight [4, 15]: 1.31 ± 0.50 g
Inhibition Rate (tumor growth inhibition rate) [4, 16]: 70.12%
Tumor Weight [4, 16]: 0.81 ± 0.08 g
Relative Tumor Proliferation Rate (T/C) ([4]; PANC-1, high dose i.g. 30 days): 30.80%
Relative Tumor Proliferation Rate (T/C) ([4]; PANC-1, low dose i.g. 30 days): 71.92%
tumor volume and relative tumor volume compared with the model group ([4]; PANC-1, low, medium and high doses, P<0.05): significantly lower
Relative Tumor Proliferation Rate (T/C) ([4]; PANC-1, medium dose i.g. 30 days): 49.05%
Relative Tumor Proliferation Rate (T/C) ([4]; PANC-1 nude mice, 12.5 mg/kg): 71.92%
Relative Tumor Volume (RTV) ([4]; PANC-1 nude mice, 12.5 mg/kg): 12.59 ± 7.49
Tumor Volume (mm3) (d 1) ([4]; PANC-1 nude mice, 12.5 mg/kg): 139.97 ± 26.58 mm3
Tumor Volume (mm3) (d30) ([4]; PANC-1 nude mice, 12.5 mg/kg): 1634.85 ± 789.61 mm3
Relative Tumor Proliferation Rate (T/C) ([4]; PANC-1 nude mice, 25 mg/kg): 49.05%
Relative Tumor Volume (RTV) ([4]; PANC-1 nude mice, 25 mg/kg): 8.58 ± 4.41
Tumor Volume (mm3) (d 1) ([4]; PANC-1 nude mice, 25 mg/kg): 146.57 ± 32.97 mm3
Tumor Volume (mm3) (d30) ([4]; PANC-1 nude mice, 25 mg/kg): 1162.80 ± 394.71 mm3
Relative Tumor Proliferation Rate (T/C) ([4]; PANC-1 nude mice, 50 mg/kg): 30.80%
Relative Tumor Volume (RTV) ([4]; PANC-1 nude mice, 50 mg/kg): 5.39 ± 0.97
Tumor Volume (mm3) (d 1) ([4]; PANC-1 nude mice, 50 mg/kg): 124.02 ± 15.14 mm3
Tumor Volume (mm3) (d30) ([4]; PANC-1 nude mice, 50 mg/kg): 656.95 ± 49.58 mm3
mouse weight compared with the model group ([4]; mouse, in vivo): no significant changes

O=P1(N(CCCl)CCCl)NCCCO1 (stereo not shown) [Cyclophosphamide, cyclophosphamide, reference compound]
Body Weight (d 1) ([1]; H1299, 30 mg/kg i.g. 30 days): 21.83 ± 0.33 g
Body Weight (d 30) ([1]; H1299, 30 mg/kg i.g. 30 days): 23.72 ± 2.41 g
Inhibition Rate (tumor growth inhibition rate) ([1]; H1299, 30 mg/kg i.g. 30 days): 78.00%
Relative Tumor Proliferation Rate (T/C) ([1]; H1299, 30 mg/kg i.g. 30 days): 22.72%
Relative Tumor Volume (RTV) ([1]; H1299, 30 mg/kg i.g. 30 days): 2.91 ± 0.95
Tumor Volume (d 1) ([1]; H1299, 30 mg/kg i.g. 30 days): 135.46 ± 16.48 mm3
Tumor Volume (d 30) ([1]; H1299, 30 mg/kg i.g. 30 days): 384.21 ± 106.99 mm3
Tumor Weight ([1]; H1299, 30 mg/kg i.g. 30 days): 0.38 ± 0.08 g
Body Weight (d 1) ([2]; TE-1, 30 mg/kg i.g. 30 days): 23.18 ± 1.22 g
Body Weight (d 30) ([2]; TE-1, 30 mg/kg i.g. 30 days): 20.57 ± 1.14 g
Inhibition Rate (tumor growth inhibition rate) ([2]; TE-1, 30 mg/kg i.g. 30 days): 71.87%
Relative Tumor Proliferation Rate (T/C) ([2]; TE-1, 30 mg/kg i.g. 30 days): 30.18%
Relative Tumor Volume (RTV) ([2]; TE-1, 30 mg/kg i.g. 30 days): 4.00 ± 1.91
Tumor Volume (d 1) ([2]; TE-1, 30 mg/kg i.g. 30 days): 269.96 ± 92.18 mm3
Tumor Volume (d 30) ([2]; TE-1, 30 mg/kg i.g. 30 days): 886.22 ± 271.22 mm3
Tumor Weight ([2]; TE-1, 30 mg/kg i.g. 30 days): 0.44 ± 0.18 g
Body Weight (d 1) ([3]; H460, 30 mg/kg i.g. 30 days): 20.46 ± 0.54 g
Body Weight (d 30) ([3]; H460, 30 mg/kg i.g. 30 days): 21.20 ± 0.75 g
Inhibition Rate (tumor growth inhibition rate) ([3]; H460, 30 mg/kg i.g. 30 days): 71.08%
Relative Tumor Proliferation Rate (T/C) ([3]; H460, 30 mg/kg i.g. 30 days): 30.86%
Relative Tumor Volume (RTV) ([3]; H460, 30 mg/kg i.g. 30 days): 3.24 ± 0.99
Tumor Volume (d 1) ([3]; H460, 30 mg/kg i.g. 30 days): 146.98 ± 27.55 mm3
Tumor Volume (d 30) ([3]; H460, 30 mg/kg i.g. 30 days): 468.49 ± 128.57 mm3
Tumor Weight ([3]; H460, 30 mg/kg i.g. 30 days): 0.50 ± 0.06 g
Body Weight (d 1) ([4]; PANC-1, 30 mg/kg i.g. 30 days): 22.03 ± 0.70 g
Body Weight (d 30) ([4]; PANC-1, 30 mg/kg i.g. 30 days): 17.77 ± 0.65 g
Inhibition Rate (tumor growth inhibition rate) ([4]; PANC-1, 30 mg/kg i.g. 30 days): 70.18%
Tumor Weight ([4]; PANC-1, 30 mg/kg i.g. 30 days): 0.81 ± 0.25*8 g
Relative Tumor Proliferation Rate (T/C) ([4]; PANC-1 nude mice, 30 mg/kg): 29.56%
Relative Tumor Volume (RTV) ([4]; PANC-1 nude mice, 30 mg/kg): 5.17 ± 0.64
Tumor Volume (mm3) (d 1) ([4]; PANC-1 nude mice, 30 mg/kg): 103.78 ± 12.65 mm3
Tumor Volume (mm3) (d30) ([4]; PANC-1 nude mice, 30 mg/kg): 532.62 ± 56.27 mm3
